# Measurements: publication PMC8473062, “Stability and Safety of Inhibitor Cystine Knot Peptide, GTx1-15, from the Tarantula Spider Grammostola rosea” (Toxins, 2021)
# Where two headings read alike, the source gives them in different places.
# Key:
# THP-1 cells = assay: Antigenicity assay (CD80, CD86, CD54 expression by real-time PCR); conditions: positive control 4 μg/mL, 24 h exposure, RT-PCR, one range for the three genes
# Description: THP-1 cells were cultured as described above. For antigenicity assays, 2.4 × 10^6 THP-1 cells were inoculated into single wells of a 12-well plate with 1.2 mL RPMI-1640 medium. […] As a negative control, RPMI-1640 was added. After a 24-h incubation, THP-1 cells were collected via centrifugation at 1000× g for 5 min, and then total RNA was extracted from cells using an RNeasy Mini Kit (QIAGEN, Hilden, Germany) according to the manufacturer’s instructions. Total RNA was treated with DNase (QIAGEN) for 10 min to digest contaminating genomic DNA and purified by an RNeasy MinElute Cleanup Kit (QIAGEN). Complementary DNA was synthesized with PrimeScript Reverse Transcriptase (Takara Bio) with an oligo (dT)12-18 primer (Invitrogen, Waltham, USA), 10 mM each dNTP mixture (Promega, Madison, USA), and RNase Inhibitor (Takara Bio). Real-time PCR mixtures were prepared with SYBR Premix Ex Taq (Takara Bio) according to the manufacturer’s instructions. […] Primers for real-time PCR were designed using Roche ProbeFinder version 2.45 (http://qpcr.probefinder.com/roche3.html. This site is stopped at the end of 2020).
# [1] = Protein thermal shift assay; format: physicochemical; conditions: Protein Thermal Shift kit, heated 25 to 99 °C at 1 °C/min
# Description: The protein thermal shift assay was conducted with the StepOne Real-Time PCR System (Thermo Fisher Scientific) using the Protein Thermal Shift Assay Kit according to the manufacturer’s instructions with Protein Thermal Shift Software version 1. The protein melt reaction mix was added to the wells of a 48-well PCR plate. The plate was heated from 25 to 99 °C with a heating rate of 1 °C/min. The software allows the user to calculate a melting temperature (Tm) from their melt curve data using the Boltzmann equation (Tm B).
# [2] = cited from earlier work
# Description: We previously reported that ProTxII (an ICK peptide) remains in circulation for over 4 h. Similar to those results, GTx1-15 retains an effective concentration in circulation for over several hours.
# [3] = cited from earlier work; for degradation after thermal incubation: 24 h
# Description: Cyclotides are cystine-knotted peptides in which the N- and C-termini are cyclized. Kalata B1 is a well-known cyclotide that consists of 29 amino acids and is not degraded after heating to temperatures approaching boiling. The insecticidal spider toxin ω-hexatoxin-Hv1a is an ICK peptide whose thermal stability has been investigated. After incubating it for 24 h at 50 °C, 75 °C or 95 °C, ω-hexatoxin-Hv1a is degraded about 20%, 30% and 90%, respectively. In contrast, GTx1-15 degraded only 30% after a 24-h incubation at 95 °C.
compound,measurement,setting,value
"O=[N+]([O-])c1ccc(Cl)c([N+](=O)[O-])c1 [DNCB, 2,4-Dinitrochlorobenzene]","increase in expression of CD80, CD86 and CD54 genes",THP-1 cells,20–70 times
GsMTx4,Tm B (Boltzmann melting temperature),[1],95.26 ± 0.10 °C
ProTxII: ICK peptide compared in the protein thermal shift assay,time remaining in circulation,[2],over 4 h
same,Tm B (Boltzmann melting temperature),[1],93.95 ± 0.12 °C
ω-hexatoxin-Hv1a,degradation after thermal incubation,[3]; 50 °C,about 20%
same,degradation after thermal incubation,[3]; 75 °C,~30%
same,degradation after thermal incubation,[3]; 95 °C,~90%
"ProTxI: ICK peptide compared in the protein thermal shift assay (ECRYWLGGCSAGQTCCKHLVCSRRHGWCVWDGTFS; UniProt P83480 1-35, looked up)",Tm B (Boltzmann melting temperature),[1],93.23 ± 0.12 °C
"Kalata B1: well-known cyclotide of 29 amino acids; cystine-knotted peptide with N- and C-termini cyclized (cyclo(GLPVCGETCVGGTCNTPGCTCSWPVCTRN); disulfide (positions not given here); also: cystine-knotted (disulfide places not given here); UniProt P56254 89-117, looked up)",degradation after heating,[3]; heating to temperatures approaching boiling,not degraded
